Common to all, as to experiment: inhibition of tumour cell growth, NCI panel, 48 h
Test [1] concerns MDA-MB-435.
Test [2] deals with T-47D breast.
In test [3] the test system is M14 melanoma.
Test [4] deals with NCI-H522 lung.
Test [5] has as its system SF-539 CNS.
The test system of test [6] is SW-620 colon.
Test [7] relates to OVCAR-4 ovarian.
Test [8] has as its system A549 NSCLC.
For test [9], the system named is CCRF-CEM leukemia.
In test [10] the test system is NCI/ADR-RES ovarian.

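1) Cells in 96-well plates. 2) Compound, 48 h, 5 concentrations. 3) Linear interpolation between surrounding doses. 4) Unreached endpoint = highest concentration. Here, GI50 denotes the concentration required for 50% inhibition of growth. TGI marks complete inhibition of growth.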

For `CC(NNC(=S)N1CCCCCC1)c1ccc2ccccc2n1` (stereo not given), the GI50 in [1] was 2.25 µM; in test [2], 1.91 µM; in test [3] it was 1.85 µM; in test [4], 2.69 µM; in [5], 1.68 µM; in [6] it was 3.23 µM. In addition, the GI50 in test [7] was 0.0701 µM; in test [8] it was 1.13 µM; in [9], 0.765 µM; in [10] it was 2.29 µM. The TGI worked out at 21.4 µM in test [1]; 28.7 µM in test [2]; 11.7 µM in [3]; 21.6 µM in test [4]; 12.6 µM in test [5]; 33.2 µM in test [6]. Moreover, the TGI in test [7] is 13.8 µM; in test [8], 27 µM; in test [9], over 100 µM; in test [10] it was over 100 µM.

In the case of `COc1cc2c(/C=C3/C(=O)Nc4ccccc43)c(Cl)n(Cc3ccccc3[N+](=O)[O-])c2cc1C`, the GI50 in test [1] was 3.39 µM; in test [2], 4.11 µM; in test [3], 6.35 µM; in test [4], 12.2 µM; in test [5], 14.3 µM; in test [6] it was 7.91 µM. In addition, the GI50 in test [7] was 4.18 µM; in test [8], 7.8 µM; in test [9], 5.62 µM; in test [10], 4.71 µM. Besides, the TGI in [1] amounted to 15.6 µM; in test [2], 21.8 µM; in [3], 30.2 µM; in [4], 35.3 µM; in test [5], 40.4 µM; in [6] it was 34.5 µM. Moreover, the TGI was 22.2 µM in [7], over 100 µM in test [8], over 100 µM in test [9] and 20.3 µM in test [10].

As for `Cc1ccc2c(N)c(C(=O)N[C@H]3CCc4cc(N5CC6CCC(C5)N6)ccc4C3)sc2n1`, the GI50 was 0.359 µM in test [1]; 0.497 µM in test [2]; 0.307 µM in [3]; 0.265 µM in test [4]; 0.531 µM in test [5]; 0.293 µM in test [6]. The GI50 was 0.301 µM in test [7], 0.207 µM in test [8], 0.228 µM in [9] and 0.798 µM in test [10]. Besides, the TGI worked out at 2.34 µM in test [1]; 3.55 µM in test [2]; 1.82 µM in test [3]; 1.59 µM in test [4]; 2.21 µM in test [5]; 2.13 µM in test [6]. Moreover, the TGI in test [7] was 1.96 µM; in test [8], 2.03 µM; in test [9] it was over 33 µM; in test [10], 2.76 µM.

For `Cc1ccc2c(=O)c3cccc(CC(=O)O)c3oc2c1C`, the GI50 in [1], in test [2], in test [3], in test [4], in test [5] and in test [6] was over 100 µM throughout. The GI50 in test [7], in [8], in [9] and in test [10] was over 100 µM each time. Besides, the TGI in test [1], in [2], in test [3], in test [4], in test [5] and in test [6] was over 100 µM throughout. For the same compound, the TGI in test [7], in test [8], in test [9] and in test [10] was over 100 µM throughout.

Take `C=C1C(=O)O[C@H]2[C@H]1CC/C(Cn1cc(-c3ccccc3)nn1)=C\CC[C@@]1(C)O[C@@H]21`: the GI50 in test [1] was 2.37 µM; in test [2], 1.3 µM; in [3] it was 1.78 µM; in [4], 0.811 µM; in test [5], 2.01 µM; in test [6] it was 1.5 µM. For the same compound, the GI50 was 3.22 µM in [7], 5.88 µM in test [8], 0.992 µM in test [9] and 6.17 µM in test [10]. The TGI in test [1] worked out at 9.18 µM; in test [2] it was 3.94 µM; in test [3], 7.6 µM; in test [4], 1.66 µM; in [5] it was 7.18 µM; in test [6] it was 6.43 µM. The TGI in test [7] was determined as 12.1 µM; in test [8], 13.8 µM; in test [9], 4.95 µM; in test [10] it was 13.7 µM.

As to `COc1ccc(-c2nc(-c3cn(C)c4ncccc34)cs2)cc1`, the GI50 in test [1] was 2.79 µM; in test [2], 12.5 µM; in test [3], 28.2 µM; in [4] it was 14.9 µM; in test [5], 92.7 µM; in test [6], 19.3 µM. The GI50 in [7] was over 100 µM; in test [8], 76.1 µM; in [9], over 100 µM; in [10], 11.9 µM. The TGI in test [1], in test [2], in test [3], in [4], in test [5] and in [6] was over 100 µM in each case. Moreover, the TGI in test [7], in test [8], in test [9] and in test [10] was over 100 µM each time.

Consider `O=C(NOCC1CC1)c1ccc(F)c(F)c1Nc1ccc(I)cc1Cl`, for which the GI50 in test [1] is 0.298 µM; in test [2], 3.15 µM; in [3], 0.0546 µM; in test [4], 1.94 µM; in [5], 2.24 µM; in test [6], 0.141 µM. In addition, the GI50 is 1.81 µM in [7], 1.41 µM in test [8], 2.99 µM in test [9] and 2.85 µM in [10]. The TGI is over 55.5 µM in test [1]; over 52.3 µM in test [2]; 0.505 µM in [3]; 8.51 µM in [4]; 9.73 µM in [5]; over 39.3 µM in test [6]. The TGI is 17.7 µM in test [7], 13.2 µM in test [8], 19.1 µM in test [9] and over 47.9 µM in test [10].

Regarding `C=C(CN1CCc2ccccc2C1)c1ccc(C(=O)Nc2ccc(N)cc2)cc1`, the GI50 in [1] is 3.11 µM; in [2] it was 11.1 µM; in [3], 11.8 µM; in [4], 3.89 µM; in [5], 19.3 µM; in test [6] it was 30.5 µM. In addition, the GI50 in test [7] is 40.7 µM; in [8], 18.7 µM; in test [9] it was 0.454 µM; in test [10], 19.1 µM. Also, the TGI in test [1] is 11.3 µM; in test [2], 41.7 µM; in [3], 65.6 µM; in test [4], 21 µM; in test [5], 57.4 µM; in [6], over 100 µM. The TGI was over 100 µM in test [7], 52.5 µM in test [8], over 100 µM in test [9] and over 100 µM in test [10].

Consider `Nc1ccccc1C#C/C=C\C#Cc1ccc(Cl)cc1Cl`, for which the GI50 in test [1] is 2.41 µM; in test [2] it was 18.9 µM; in test [3] it was 14.7 µM; in [4], 14.7 µM; in [5], 12.3 µM; in test [6], 34.8 µM. The GI50 in test [7] was 28.5 µM; in [8], 16 µM; in [9], 0.376 µM; in test [10], 4.42 µM. The TGI in test [1] was 5.8 µM; in [2] it was 78.5 µM; in test [3] it was 34.4 µM; in test [4] it was 35.4 µM; in test [5], 28.9 µM; in test [6], over 100 µM. Moreover, the TGI in test [7] is over 100 µM; in [8] it was 44.2 µM; in [9], 10.6 µM; in test [10], 18.8 µM.

For `C=C1C(=O)OC2CC3(CO3)C3C(O)C(O)CC3(C)CC12` (stereo not given), the TGI in test [1] is 83.1 µM; in test [2], over 100 µM; in [3], 36.7 µM; in [4], 27.9 µM; in [5] it was 39.2 µM; in [6], 32.3 µM. The TGI in test [7] was over 100 µM; in test [8], over 100 µM; in test [9], 45.9 µM; in [10], over 100 µM.

In the case of `COc1cc(/C=C/C(=O)c2ccc(Cl)cc2)ccc1OS(=O)(=O)c1ccc(C)cc1`, the GI50 in test [1] is 2.74 µM; in [2] it was 9.27 µM; in [3] it was 6.35 µM; in test [4] it was 2.93 µM; in test [5], 11.2 µM; in [6] it was 2.21 µM. Also, the GI50 in test [7] was 12.8 µM; in test [8], 18.4 µM; in test [9] it was 2.46 µM; in test [10], 9.38 µM. Besides, the TGI in test [1] came out at 8.56 µM; in [2], 28.6 µM; in [3], 23.6 µM; in [4], 12.2 µM; in test [5], 24 µM; in [6], 6.01 µM. Besides, the TGI in [7] was 80.1 µM; in test [8], over 100 µM; in test [9], 7.19 µM; in test [10], 37.7 µM.

Turning to `CC(C)(O)C1OCC(C2CCC3(C)C4=CCC5C(C)(C)C(O)CCC5(C)C4CCC23C)CC1O` (stereo not given), the TGI in test [1] is 28.8 µM; in test [2], 26.6 µM; in [3], over 100 µM; in test [4] it was 23.6 µM; in test [5] it was 26.4 µM; in [6], 28.5 µM. In addition, the TGI was 27.5 µM in test [7], 31.8 µM in test [8], over 100 µM in test [9] and 27 µM in test [10].

The values are drawn from PubChem BioAssay (NCI).
